Target: T1, polycystin-2 (Homo sapiens, UniProt Q13563)
T1 construct: expressed in transfected cells
T1 sequence (Q13563 1-968): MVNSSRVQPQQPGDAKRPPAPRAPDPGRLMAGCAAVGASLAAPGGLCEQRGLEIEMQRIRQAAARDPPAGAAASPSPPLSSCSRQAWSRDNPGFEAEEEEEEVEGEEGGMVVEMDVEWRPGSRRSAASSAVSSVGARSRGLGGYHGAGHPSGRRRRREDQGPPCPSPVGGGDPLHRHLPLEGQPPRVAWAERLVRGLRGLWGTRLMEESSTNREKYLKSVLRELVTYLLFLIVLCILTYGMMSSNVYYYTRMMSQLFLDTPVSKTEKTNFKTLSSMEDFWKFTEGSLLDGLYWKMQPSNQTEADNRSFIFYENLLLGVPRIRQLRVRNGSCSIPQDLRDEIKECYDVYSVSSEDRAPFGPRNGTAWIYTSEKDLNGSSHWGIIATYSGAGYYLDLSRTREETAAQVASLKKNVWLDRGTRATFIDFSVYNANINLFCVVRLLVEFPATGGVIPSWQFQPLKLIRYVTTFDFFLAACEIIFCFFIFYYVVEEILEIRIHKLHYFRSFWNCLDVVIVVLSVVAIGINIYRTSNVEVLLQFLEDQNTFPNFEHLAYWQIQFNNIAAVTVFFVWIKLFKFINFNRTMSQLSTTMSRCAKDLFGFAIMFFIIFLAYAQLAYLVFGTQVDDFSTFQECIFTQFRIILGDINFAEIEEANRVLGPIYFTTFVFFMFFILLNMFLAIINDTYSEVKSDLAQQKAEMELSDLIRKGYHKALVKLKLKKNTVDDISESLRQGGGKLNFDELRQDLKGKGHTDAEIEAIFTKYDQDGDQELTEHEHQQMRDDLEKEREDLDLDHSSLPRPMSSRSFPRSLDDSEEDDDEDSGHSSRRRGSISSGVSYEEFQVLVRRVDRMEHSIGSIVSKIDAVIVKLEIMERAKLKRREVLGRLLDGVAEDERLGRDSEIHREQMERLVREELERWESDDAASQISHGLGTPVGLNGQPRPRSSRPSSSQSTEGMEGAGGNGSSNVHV
Assay: Inside-out cilia patch of HEK cells, voltage dependent channel opening at low and high intraciliary Ca2+
Assay type: cell-based
Conditions: from low (100 nM) to high (100 μM) Ca2+, WT channels
Excerpt: To test whether calcium occupancy of the EF hand is responsible for CDM and CDD of human polycystin-2, we generated double alanine mutations at the −X ([…]) and −Z vertices (E774A) which abolished Ca^2+ affinity for the CTD fragment (FIG. 17B). We then expressed the −X-Z double mutation in PKD2-GFP in a PKD2^null HEK cell line, so that exogenous channels could be assayed without the contribution of endogenous PKD2 alleles, as previously described (Vien et al., 2020). The stably expressed human WT and −X-Z channels trafficked to the primary cilia, and glass electrodes with submicron apertures were fabricated to form high resistance electrical seals with the GFP-illuminated cilia membranes (FIG. 18A). […] These experiments were performed with only one channel present in the membrane, so that stochastic effects on single channel states could be determined. […]
Electrophysiology. The electrophysiologist was blinded by a third party in the laboratory, where test groups were assigned a letter to conceal the genetic identity of the cells being evaluated. […] Ciliary ion currents were recorded using borosilicate glass electrodes polished to resistances of 14-23 MΩ using the cilium patch method previously described (Vien et al., 2020). Single channel currents measured in the inside-out configuration were recorded in symmetrical sodium concentrations. […]

For `[Ca+2]` [Ca^2+, calcium], the “Shift in the voltage-dependence of half maximal open probability (V1/2)” value was −47 mV.
